Source: patent US9416163B2, “Synthetic oligopeptides designed from mite cysteine proteases and methods for the production of polyclonal IgY antibodies for the detection of intradomiciliary mites” (priority 2009, dated 2016)

Each sequence was assayed on Hi Line Brown chickens (assay: Immunogenicity of synthetic peptide in immunized chickens (IgY production)). Settings: chickens immunized intramuscularly with peptide in Freund's adjuvant; IgY from egg yolk.
Type: in vivo, chicken
Text: An experimental avian model was used in the experiments, represented by Hi Line Brown chickens, immunized with peptide 2, using complete Freund's adjuvant during the first immunization and incomplete Freund's adjuvant for the three subsequent immunizations, as described in the immunization protocol used. As a positive control, chickens were immunized with BSA, and as a negative control they were not immunized. Antibodies were extracted from egg yolk using an organic solvent and purified by thiophilic chromatography. Indirect ELISA tests were developed to measure the antibody titer and its specificity was determined by indirect ELISA. (25-26)
Experiments used an avian experimental model, represented by Hi Line Brown chickens, immunized with peptide 2, using complete Freund's adjuvant for the first immunization and incomplete Freund's adjuvant for the three subsequent immunizations described in the immunization protocol used. As a positive control, chickens were immunized with BSA, and as a negative control they were not immunized. Antibodies were extracted from egg yolk using an organic solvent and purified by thiophilic chromatography. Indirect ELISA tests were developed to measure the antibody titer and its specificity was determined by indirect ELISA. (25-26)
Experiments used an avian experimental model, represented by Hi Line Brown chickens, immunized with peptide 4, using complete Freund's adjuvant for the first immunization and incomplete Freund's adjuvant for the three subsequent immunizations described in the immunization protocol used. […] Indirect ELISA tests were developed to measure the antibody titer and its specificity was determined by indirect ELISA. […]
Experiments used an avian experimental model, represented by Hi Line Brown chickens, immunized with peptide 5, using complete Freund's adjuvant for the first immunization and incomplete Freund's adjuvant for the three subsequent immunizations described in the immunization protocol used. […] Indirect ELISA tests were developed to measure the antibody titer and its specificity was determined by indirect ELISA (FIG. 14) […]

| Sequence | Immunogenicity: induction of IgY antibodies recognizing native mite proteins |
| --- | --- |
| IPANFDWRQKTHVNPIRNQG [Peptide P05] | induces the production of IgY-anti P05 antibody that recognizes epitopes B and/or T in native proteins of intradomiciliary Dp and Bt mites |
| PIRMQGGCGSCWAFSGV [Peptide P02] | induces the production of IgY anti P06 antibodies that recognize B and/or T epitopes in native proteins of intradomiciliary Df, Dp and Bt mite species |
| TNACSINGNAPAEIDLRQMR [Peptide P01] | induces the production of IgY anti P04 antibodies that recognize B and/or T epitopes in native proteins of intradomiciliary Df and Bt mite species |
